Reference: patent US9233143B2, “Medicinal agent for preventing exacerbation of malignant tumor, comprising combination of natriuretic peptide receptor GC-A and GC-B agonists” (National Cerebral and Cardiovascular Center, priority 2011, dated 2016)

Legend:
A549 cells [1] = test: Changes in the intracellular cGMP level in response to natriuretic peptide stimulus, A549 cells; assay type: cell-based, human; conditions: 1×10^−11 M to 1×10^−6 M, 10 minutes, FIG. 1A
Protocol: Lung adenocarcinoma cell line, A549 cells, was obtained from ATCC (Manassas, Va.). The cells were cultured in DMEM culture medium (Invitrogen, Carlsbad, Va.) containing 10% FCS under 5% CO2 at 37° C. The amounts of the culture medium were 1.5 mL for each well of a 6-well dish, 400 μL for each well of a 24-well dish, and 150 μL for each well of a 96-well dish. In the Examples below, unless otherwise stated, the same culture medium and culture conditions were adopted.
(§1) The A549 cells were cultured in a 24-well dish at 4×10^4 cells/well, and the culture medium was replaced with DMEM culture medium free from FCS the next day. The CAFs were cultured in a 24-well dish at 1×10^4 cells/well, and the culture medium was replaced with DMEM culture medium containing 1% FCS the next day.
(§2) To these culture media, solutions of hANP, hBNP, and hCNP-22 (final concentration: ten-fold serial dilution from 1×10^−11 M to 1×10^−6 M, the same amount of physiological saline was used as a control) were separately added. After 10 minutes had passed, 400 μL of cooled 70% ethanol (containing 0.1 N hydrochloric acid) was added, and ultrasonication was performed for a short time. The treated solution was lyophilized, and the cGMP level was measured using Cyclic GMP Assay kit (made by Yamasa Corp.).

CAFs = test: Production of cancer exacerbation factors by CAFs under TGF-β1 stimulus (quantitative RT-PCR); assay type: cell-based, human; conditions: test substance 1 μM, TGF-β1 0.125-2.0 ng/mL, 24 hours, mRNA level, FIG. 5
Protocol: Using a 6-well dish, the CAFs were cultured at 5×10^4 cells/well, and the culture medium was replaced with DMEM culture medium containing 1% FBS the next day. After 24 hours of culture, the cells were used in the following experiment.
A CNP group (a hCNP-22 solution was added (final concentration: 1 μM)) and a control group (the same amount of physiological saline was added) were prepared, and after 2 hours from the addition (of the hCNP-22 solution or the physiological saline) to the CAFs, TGF-β1 was added so that the final concentration would be 0.125, 0.25, 0.5, 1.0, and 2.0 ng/mL. After 24 hours had passed, total RNA was recovered using TRIZOL total RNA isolation reagent, cDNA was synthesized using reverse transcriptase, and the mRNA levels of VEGF-A, TGF-β1, TNF-α, and IL-6 were measured by quantitative RT-PCR.

A549 cells [2] = test: EMT induced by TGF-β1 in A549 cells (morphology, quantitative RT-PCR); assay type: cell-based, human
Protocol: Using a 6-well dish, the A549 cells were cultured at 1×10^5 cells/well, and the culture medium was replaced with DMEM culture medium free from FBS the next day. After 24 hours of culture, the cells were used in the following experiment.
An ANP group (a hANP solution was added (final concentration: 1 μM)) and a control group (the same amount of physiological saline was added) were prepared, and after 2 hours from the addition (of the hANP solution or the physiological saline) to the A549 cells, TGF-β1 was added so that the final concentration would be 0.125, 0.25, 0.5, 1.0, and 2.0 ng/mL. After 24 hours had passed, the morphological change in the cells was observed under a microscope and photographed (FIG. 2).
Then, total RNA was recovered from the above prepared ANP group and control group using TRIZOL total RNA isolation reagent (made by Invitrogen), cDNA was synthesized using reverse transcriptase, and the mRNA levels of E-cadherin, N-cadherin, VEGF-A, PDGF-B, TNF-α, and IL-6 were measured by quantitative RT-PCR. The mRNA level of each intended gene was calculated as the relative ratio of the mRNA amount of the gene to that of the housekeeping gene 36B4 measured at the same time. In the Examples below, unless otherwise stated, the mRNA levels were obtained through the same calculation.
It is known that in EMT, the expression of E-cadherin decreases while the expression of N-cadherin increases. The expression ratio of the two kinds of cadherin (N-cad/E-cad) is considered to be useful as an indicator of the degree of EMT.

[3] = system: cancer-associated fibroblasts (CAFs); test: Changes in the intracellular cGMP level in response to natriuretic peptide stimulus, CAFs; assay type: cell-based, human; conditions: 1×10^−11 M to 1×10^−6 M, 10 minutes, FIG. 1B
Protocol: For obtaining CAFs (cancer-associated fibroblasts), tissue harvested from a patient having lung cancer surgery was subjected to primary culture after the consent of the patient was obtained. The cells were then cultured in DMEM culture medium containing 10% FCS under 5% CO2 at 37° C., and the cells of the 5th and earlier passages were used.
as §1, §2

A549 cells and CAFs = test: Mouse models having transplanted cancer cells and CAFs, administration started after tumor tissue was established (Example 6); assay type: in vivo; conditions: hANP alone 0.5 μg/kg/min, started 2 weeks after transplantation, 4 weeks, FIG. 10
Protocol: In this Example and Example 6, 5-week-old male immunodeficient mice (KSN mice, Japan SLC, Inc.) were used. The osmotic pumps used were MODEL2004 (for 28-day administration) made by ALZET (Cupertino, Calif.). A mixed suspension of the A549 cells and the CAFs was prepared using DMEM free from FBS so as to contain the A549 cells at 1×10^6 cells/100 μL and the CAFs at 0.5×10^6 cells/100 μL. The mixed suspension in an amount of 100 μL per mouse was subcutaneously injected in the back of the immunodeficient mice. […] After 2 weeks of observation from the injection of the cell suspension, the mice to which the mixed suspension had been injected were randomly divided into 4 groups (control group, ANP group, CNP group, and ANP+CNP group), and an osmotic pump appropriately adjusted for each group as shown below was subcutaneously implanted to start administration. • Control group and A549 group: physiological saline was administered • ANP group: hANP was administered at 0.5 μg/kg/min • CNP group: hCNP-22 was administered at 2.5 μg/kg/min • ANP+CNP group: hANP was administered at 0.5 μg/kg/min and hCNP-22 was administered at 2.5 μg/kg/min Observation was further continued for 4 weeks after the start of administration, the tumor size at the cell injection site was measured weekly, and tumor volume was calculated in the same way as in Example 5 (FIG. 10).

[4] = A549 cells, test substance 1 μM, mRNA level, FIG. 3

With `CC[C@H](C)[C@@H]1NC(=O)[C@H](CCCNC(=N)N)NC(=O)[C@H](CC(=O)O)NC(=O)[C@H](CCSC)NC(=O)[C@H](CCCNC(=N)N)NC(=O)CNC(=O)CNC(=O)[C@H](Cc2ccccc2)NC(=O)[C@@H](NC(=O)[C@H](CO)NC(=O)[C@H](CO)NC(=O)[C@H](CCCNC(=N)N)NC(=O)[C@H](CCCNC(=N)N)NC(=O)[C@H](CC(C)C)NC(=O)[C@@H](N)CO)CSSC[C@@H](C(=O)N[C@@H](CC(N)=O)C(=O)N[C@@H](CO)C(=O)N[C@@H](Cc2ccccc2)C(=O)N[C@@H](CCCNC(=N)N)C(=O)N[C@@H](Cc2ccc(O)cc2)C(=O)O)NC(=O)CNC(=O)[C@H](CC(C)C)NC(=O)CNC(=O)[C@H](CO)NC(=O)[C@H](CCC(N)=O)NC(=O)[C@H](C)NC(=O)CNC1=O` [hANP] the “intracellular cGMP level of the A549 cells” value (A549 cells [1]) was “increased the intracellular cGMP level of the A549 cells in a concentration-dependent manner”, the “gene expression of the growth factors (VEGF-A, TGF-β1) and the inflammatory cytokines (TNF-α, IL-6) increased by the TGF-β1 stimulus in CAFs” value (CAFs) was “did not show any effect on CAFs” and the “expression ratio of N-cad/E-cad (indicator of EMT)” value (A549 cells [2]; A549 cells, 1 μM hANP, TGF-β1 stimulus, FIG. 4) was “significantly decreased”. The “morphological change in the cells associated with EMT induced by the TGF-β1 stimulus” value (A549 cells [2]; A549 cells, test substance 1 μM, 24 hours after TGF-β1, FIG. 2) was “significantly suppressed”, the “gene expression of the growth factors (VEGF-A, PDGF-B) and the inflammatory cytokines (TNF-α, IL-6) increased by EMT induced by the TGF-β1 stimulus” value (A549 cells [2]; A549 cells, test substance 1 μM, TGF-β1 0.125-2.0 ng/mL, 24 hours, mRNA level, FIG. 3) was “significantly suppressed” and the “decrease in the expression of E-cadherin induced by the TGF-β1 stimulus” value (A549 cells [2]; [4]) was “inhibited decrease”. For the same compound, the “increase in the expression of N-cadherin induced by the TGF-β1 stimulus” value (A549 cells [2]; [4]) was “significantly suppressed increase”, the “effect of suppressing EMT” value (A549 cells [2]; concentration of 1 μM, summary of Example 2) was “significantly suppressing EMT” and the “cGMP level of the CAFs” value [3] was “did not show such an action”. The “tumor growth as compared with the control group” value (A549 cells and CAFs) was “showed an effect of tumor growth suppression”.
